Experimental data from EP0067666A1, “Salts of antimicrobial naphthyridine and quinoline compounds and their production” (priority 1981, dated 1982).
Marks after values point to notes of the source that are not given here.

How the values were obtained:
[1] = Solubility screening procedure (concentration and pH of filtrate); type: physicochemical; conditions: for Conc. of CPD A: compound A + equimolar acid; for Conc. of CPD A / Conc. of CPD B: amino acid or base in deionized water, room temperature, filtrate, UV assay; for pH of Solution: pH of the filtrate; for Conc. of CPD B: compound B + equimolar acid
Experimental: (§1) The amount of Compound A or Compound B calculated for selected concentrations was weighed into volumetric flasks. Equimolar quantities of combining acid, amino acid, or base were added either as solutions or in dry form. Deionized water was added to bring the volume to that desired for the preselected concentrations.. All flasks were sonicated for 15 minutes, allowed to stand at room temperature for 30 minutes, then filtered through a fine frit sintered glass funnel. After the pH of the filtrate was taken, suitable dilutions were made into 0.1N HCl for ultraviolet spectrophotometric assay of concentration. Ten fold dilutions of the original filtrates were made into standard I.V. solutions.

[2] = 10x dilution of soluble forms with standard IV solutions (pH, precipitate); type: physicochemical; conditions: for Solution 1 ppt 24 hr / Solution 3 ppt 24 hr / Solution 2 ppt 24 hr / Solution 4 ppt 24 hr: precipitate at 24 hr
Experimental: as §1

[3] = concentrated Cpd B solution (155-221 mg/ml) diluted 10x with 0.9% NaCl
[4] = Cpd A salt solution diluted 10x with 0.9% NaCl
[5] = Cpd A salt solution diluted 10x with 5% Dextrose
[6] = Cpd A salt solution diluted 10x with 5% Dextrose + 0.9% NaCl
[7] = Cpd A salt solution diluted 10x with Lactated Ringer's Solution

| Compound | Conc. of CPD A [1] [µg/mL] | pH of Solution ([1]; CPD A solutions) | Conc. of CPD B [1] [µg/mL] | pH of Solution ([1]; CPD B solutions) | further results |
| --- | --- | --- | --- | --- | --- |
| CCn1cc(C(=O)O)c(=O)c2cc(F)c(N3CCNCC3)cc21 [A Citric] | 1500 | 3.32 | – | – | – |
| CCn1cc(C(=O)O)c(=O)c2cc(F)c(N3CCNCC3)nc21 [B Maleic] | – | – | 7750 | 2.60 | – |
| CCn1cc(C(=O)O)c(=O)c2cc(F)c(N3CCNCC3)nc21 [B Acetic] | – | – | 195000 | 4.97^c | Solution 2 pH dil ([2]; concentrated Cpd B solution (154-221 mg/ml) diluted 10x with 5% Dextrose): 5.6; Solution 3 pH dil ([2]; concentrated Cpd B solution (154-221 mg/ml) diluted 10x with 5% Dextrose + 0.9% NaCl): 5.4; Solution 4 pH dil ([2]; concentrated Cpd B solution (154-221 mg/ml) diluted 10x with Lactated Ringer's Solution): 5.3; Solution 1 pH dil [2, 3]: 5.2; Solution 1 ppt 4 hr ([2]; concentrated Cpd B solution (155-221 mg/ml) diluted 10x with 0.9% NaCl, precipitate at 4 hr): yes; Solution 1 ppt 24 hr [2, 3]: yes; Solution 3 ppt 4 hr ([2]; concentrated Cpd B solution diluted 10x with 5% Dextrose + 0.9% NaCl, precipitate at 4 hr): yes; Solution 3 ppt 24 hr ([2]; concentrated Cpd B solution diluted 10x with 5% Dextrose + 0.9% NaCl): yes; Solution 2 ppt 4 hr ([2]; concentrated Cpd B solution diluted 10x with 5% Dextrose, precipitate at 4 hr): slight; Solution 2 ppt 24 hr ([2]; concentrated Cpd B solution diluted 10x with 5% Dextrose): slight; Solution 4 ppt 4 hr ([2]; concentrated Cpd B solution diluted 10x with Lactated Ringer's Solution, precipitate at 4 hr): slight; Solution 4 ppt 24 hr ([2]; concentrated Cpd B solution diluted 10x with Lactated Ringer's Solution): yes; pH of Solut. ([2]; undiluted concentrated Cpd B solution used for the Solution 1 dilution): 4.97; Concen. of Cpd B ([2]; undiluted concentrated solution (at least 155 mg/ml) used for the Solution 1 dilution (for most salts for all four solutions)): 195000 µg/mL |
| CCn1cc(C(=O)O)c(=O)c2cc(F)c(N3CCNCC3)cc21 [A Maleic] | 45100 | 2.79 | – | – | – |
| CCn1cc(C(=O)O)c(=O)c2cc(F)c(N3CCNCC3)cc21 [A Oxalic] | 19800 | 2.14 | – | – | – |
| CCn1cc(C(=O)O)c(=O)c2cc(F)c(N3CCNCC3)cc21 [A Sodium Hydroxide] | 131000 | 10.0 | – | – | – |
| CCn1cc(C(=O)O)c(=O)c2cc(F)c(N3CCNCC3)cc21 [A L-Arginine] | 11100 | 9.8 | – | – | – |
| CCn1cc(C(=O)O)c(=O)c2cc(F)c(N3CCNCC3)nc21 [B Lactobionic] | – | – | 99000 | 3.6 ^b | – |
| CCn1cc(C(=O)O)c(=O)c2cc(F)c(N3CCNCC3)cc21 [A Gluconic] | 182000 | 4.3 | – | – | – |
| CCn1cc(C(=O)O)c(=O)c2cc(F)c(N3CCNCC3)nc21 [B Citric] | – | – | 1300 | 3.14 | – |
| CCn1cc(C(=O)O)c(=O)c2cc(F)c(N3CCNCC3)cc21 [A L-Cysteic] | 166000 | 2.92 | – | – | Solution 1 pH dil [2, 4]: 3.17; Solution 1 ppt 24 hr [2, 4]: no; Solution 2 pH dil [2, 5]: 2.82; Solution 3 pH dil [2, 6]: 2.68; Solution 3 ppt 24 hr [2, 6]: no; Solution 2 ppt 24 hr [2, 5]: no; Solution 4 pH dil [2, 7]: 3.70; Solution 4 ppt 24 hr [2, 7]: slight; pH of Solut. ([2]; undiluted Cpd A solution): 2.92; Concen. of Cpd A ([2]; undiluted solution used for the 10x dilutions): 166000 µg/mL |
| CCn1cc(C(=O)O)c(=O)c2cc(F)c(N3CCNCC3)cc21 [A L-Proline] | 900 | 6.28 | – | – | – |
| CCn1cc(C(=O)O)c(=O)c2cc(F)c(N3CCNCC3)nc21 [B Glycine] | – | – | 1200 | 6.87 | – |
| CCn1cc(C(=O)O)c(=O)c2cc(F)c(N3CCNCC3)cc21 [A L-Leucine] | 900 | 6.2 | – | – | – |
| CCn1cc(C(=O)O)c(=O)c2cc(F)c(N3CCNCC3)nc21 [B L-Histidine] | – | – | 1100 | 7.53 | – |
| CCn1cc(C(=O)O)c(=O)c2cc(F)c(N3CCNCC3)cc21 [A L-Histidine] | 700 | 7.4 | – | – | – |
| CCn1cc(C(=O)O)c(=O)c2cc(F)c(N3CCNCC3)nc21 [B Choline] | – | – | 38200 | 9.8 | – |
| CCn1cc(C(=O)O)c(=O)c2cc(F)c(N3CCNCC3)cc21 [A Diethanolamine] | 7500 | 9.68 | – | – | – |
| CCn1cc(C(=O)O)c(=O)c2cc(F)c(N3CCNCC3)nc21 [B L-Proline] | – | – | 1100 | 6.92 | – |
